Reference: paper PMC6130489, “Caffeic acid methyl and ethyl esters exert potential antidiabetic effects on glucose and lipid metabolism in cultured murine insulin-sensitive cells through mechanisms implicating activation of AMPK” (Pharmaceutical Biology, 2017)

Assays:
C2C12 cells [1] = system: C2C12 cells; design: method as in Eid et al. [2010]; settings: cultured C2C12 cells; ref Eid et al. [2010]; cited from earlier work
AMPK = test: Western immunoblot phospho-AMPK in 3T3-L1 adipocytes; type: cell-based, mouse; settings: 100 μM (Figure 4 legend), phospho-AMPK/pan-AMPK
Description: (§1) Insulin (100 nM) or aminoimidazole carboxamide ribonucleotide (AICAR; 1 mM) were added to some vehicle-treated wells 30 min prior to the end of the treatment and served as the positives controls. Protein content was assayed by the bicinchoninic acid method (Thermo Scientific Pierce Protein Research, Rockford, IL) standardized to bovine serum albumin. Western immunoblotting was performed as described elsewhere (Eid et al. [2010]). Membranes were incubated overnight with phospho-AMPK, phospho-Akt, GLUT4, GLUT1 and β-actin antibodies (1:1000 dilution, Cell Signalling Technology, Danvers, MA), or with PPAR-γ, SREBP-1 (1:200, Santa Cruze Biotechnology, Santa Cruz, CA), followed by incubation with HRP-coupled secondary antibody (1:10,000) for 1 h. Immunoreactive bands were visualized by enhanced chemiluminescence and quantified by the Scion Image program (Scion Corporation, Frederick, MD). Experiments were repeated on 3 different passages of cells, each passage containing all conditions in parallel.
(§2) Figure 4. CAME and CAEE inhibit C/EBP-β and PPAR-γ protein expression through mechanisms implicating AMPK pathway. Shown are representative blots of 3T3-adipocytes treated with the maximum nontoxic concentration (100 μM) of either CAME or CAEE. […] Data are expressed as C/EBP-β/β-actin (D), PPAR-γ/β-actin (E), phospho-Akt/pan-Akt (F) and phospho-AMPK/pan-AMPK (G). […]

Akt = test: Western immunoblot phospho-Akt in L6 myotubes; type: cell-based, rat; settings: 50 μM, 18 h
Description: L6 cells myotubes, H4IIE cells and 3T3-L1 adipocytes were treated with either CAME, CAEE (50 μM each) or vehicle (DMSO) for 18 h. Insulin (100 nM) or aminoimidazole carboxamide ribonucleotide (AICAR; 1 mM) were added to some vehicle-treated wells 30 min prior to the end of the treatment and served as the positives controls. Protein content was assayed by the bicinchoninic acid method (Thermo Scientific Pierce Protein Research, Rockford, IL) standardized to bovine serum albumin. Western immunoblotting was performed as described elsewhere (Eid et al. [2010]). […] Immunoreactive bands were visualized by enhanced chemiluminescence and quantified by the Scion Image program (Scion Corporation, Frederick, MD). […]
Figure 1. […] Cells were treated as previously described, cell surface GLUT4myc was detected by an enzyme-linked colorimetric assay. […] Results represent the means ± SEM of three independent experiments, and 3-4 cells were analyzed for each condition per experiment. *Indicates a significant (p ≤ 0.05) difference, **(p < 0.01) from the vehicle control group as assessed by ANOVA. […] Data are expressed as (D) phospho-AMPK/β-actin, (E) GLUT4/β-actin and (F) GLUT1/β-actin and are given as mean ± SEM from 3 experiments. *p < 0.05 indicates a significant difference, **(p < 0.01) from the vehicle control group.

C/EBP-β = test: Western immunoblot C/EBP-β in 3T3-L1 adipocytes; type: cell-based, mouse; settings: 100 μM (Figure 4 legend)
Description: as §1, §2

C2C12 cells [2] = system: C2C12 cells; design: method as in Eid et al. [2010]; settings: cultured C2C12 cells; ref Eid et al. [2010]; cited from earlier work; remark: listed apart in the source
L6 GLUT4myc myotubes = test: 3H-Deoxyglucose uptake assay; type: cell-based, rat; settings: 50 μM, 18 h; for 2-deoxyglucose uptake rate: basal (DMSO) 10.1 ± 0.5
Description: Measurement of glucose uptake was performed as previously described (Eid et al. [2010]) using [^3H]-2-deoxyglucose (TRK-383, Amersham Biosciences, Buckinghamshire, UK). Nonspecific uptake was measured in the presence of cytochalasin B (10 μM) and was subtracted from all values.
Figure 1. (A) CAME and CAEE increase ^3H-deoxyglucose uptake in L6 GLUT4myc myotubes. Cells were treated with 50 μM of either CAME, CAEE, or with vehicle (0.1% DMSO) for 18 h. 100 nM insulin served as the positive control and was applied for the last 15 min of the treatment in vehicle-treated cells. Glucose uptake was performed as described in Materials and Methods section. (B) CAME and CAEE stimulate GLUT4 translocation in L6 GLUT4myc myotubes. Cells were treated as previously described, cell surface GLUT4myc was detected by an enzyme-linked colorimetric assay. By the end of the treatment, L6- GLUT4myc cells were labeled with anti-c-myc antibody as described in Materials and Methods section. Results represent the means ± SEM of three independent experiments, and 3-4 cells were analyzed for each condition per experiment. *Indicates a significant (p ≤ 0.05) difference, **(p < 0.01) from the vehicle control group as assessed by ANOVA. […] L6 myotubes treated with CAME or CAEE (50 μM each), DMSO (0.1%) for 18 h. Insulin (100 nM) and AICAR (2 mM) both applied for 30 min and served as positive controls. Immunoblots were probed with anti phospho-AMPK (Thr 172), anti-GLUT4, anti-GLUT1 and anti-phospho-Akt (Ser 473) antibodies as described in Materials and Methods section. Anti-β-actin antibody was used as a loading control. Representative blots are shown in panel C. Data are expressed as (D) phospho-AMPK/β-actin, (E) GLUT4/β-actin and (F) GLUT1/β-actin and are given as mean ± SEM from 3 experiments. *p < 0.05 indicates a significant difference, **(p < 0.01) from the vehicle control group.

Row | Structure (SMILES) | toxicity (C2C12 cells [1]) | phospho-AMPK, fold increase over basal levels (AMPK) [fold] | effect on Akt (phospho-Akt) (Akt) | protein level of C/EBP-β (C/EBP-β) | glucose uptake (C2C12 cells [2]) | glucose uptake, percent of DMSO control (L6 GLUT4myc myotubes) [%] | 2-deoxyglucose uptake rate (L6 GLUT4myc myotubes) [pmol/min/mg protein]
1 | COC(=O)/C=C/c1ccc(O)c(O)c1 [CAME, CA methyl ester] | no or little toxicity | 2.4 | no effect | significantly reduced | potently enhanced glucose uptake | 184 ± 16 | 18.7 ± 0.8
2 | CCOC(=O)/C=C/c1ccc(O)c(O)c1 [CAEE, caffeic acid ethyl ester] | no or little toxicity | 2.3 | no effect | significantly reduced | potently enhanced glucose uptake | 216 ± 19 | 21.9 ± 1.0
